Results on 14 compounds are retold here after patent publication US9828366B2, “Bicyclic derivatives and pharmaceutical composition including the same” (HANMI PHARM. CO., LTD., priority 2014, dated 2017).

The target in assay [1] is T1, hSGLT1 (Homo sapiens, UniProt P13866).
T1 construct: FLAG; expressed in transfected cells
T1 sequence (P13866 1-664): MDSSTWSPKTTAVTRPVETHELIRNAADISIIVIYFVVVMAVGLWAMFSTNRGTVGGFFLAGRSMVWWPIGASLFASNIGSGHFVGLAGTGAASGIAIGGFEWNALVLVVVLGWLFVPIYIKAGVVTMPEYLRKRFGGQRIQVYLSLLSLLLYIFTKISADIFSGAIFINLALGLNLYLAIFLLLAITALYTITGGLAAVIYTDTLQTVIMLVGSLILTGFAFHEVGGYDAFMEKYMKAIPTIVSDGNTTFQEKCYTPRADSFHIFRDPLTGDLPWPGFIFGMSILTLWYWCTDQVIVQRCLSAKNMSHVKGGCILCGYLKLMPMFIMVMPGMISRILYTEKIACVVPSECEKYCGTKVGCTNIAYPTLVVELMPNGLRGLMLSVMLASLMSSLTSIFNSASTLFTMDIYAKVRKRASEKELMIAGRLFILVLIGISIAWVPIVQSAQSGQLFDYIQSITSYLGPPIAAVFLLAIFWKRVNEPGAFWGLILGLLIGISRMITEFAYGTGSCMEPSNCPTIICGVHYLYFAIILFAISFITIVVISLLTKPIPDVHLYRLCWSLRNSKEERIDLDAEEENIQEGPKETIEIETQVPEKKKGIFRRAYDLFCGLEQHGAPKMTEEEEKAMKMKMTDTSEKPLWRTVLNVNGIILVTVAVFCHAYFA
Put plainly: [14C]-AMG uptake assay in HEK293-hSGLT1 cells. The format is cell-based. Particulars: HEK293-hSGLT1 stable cell line. As to the method:
(§1) For the evaluation of the pharmaceutical efficacies of the compounds as a SGLT inhibitor, a glucose uptake assay was conducted by using stable cell lines, i.e., HEK293-hSGLT1 and HEK293-hSGLT2. The stable cell lines were prepared by transfection of human embryonic kidney 293 (HEK293) cell line with pcDNA3.1(+)-FLAG-hSGLT1 and pcDNA3.1(+)-FLAG-hSGLT2 vectors.
(§2) The cells were seeded in a 96-well poly-D-lysine (PDL) coated plate at a density of 2.5×10^4 cells/well and cultured in a cell culture incubator for one day at 37° C., 5% CO2. Then, the cells were washed once with 1× assay buffer (140 mM NaCl, 5 mM KCl, 2.5 mM CaCl2, 1 mM MgSO4.7H2O, 1 mM KH2PO4, 10 mM HEPES) and pre-incubated in a cell culture incubator for 30 minutes with 1× assay buffer at 37° C., 5% CO2. Each compound obtained in the Examples was 10-fold diluted with 1× assay buffer. The diluted compounds were added to the plate at various concentrations and then cultured in a cell culture incubator for 1 hour at 37° C., 5% CO2.
(§3) Radioactive [^14C]-alpha-methyl-D-glucopyranoside (Cat# NEC659250UC, Perkin Elmer) was diluted with 1× assay buffer at a concentration of 0.2 μCi. The diluted [^14C]-AMG was added to all the wells in plate in the same amount, and the cells were cultured in a cell culture incubator for 2 hours at 37° C., 5% CO2. The cells were washed three times with cold Dulbecco's Phosphate buffer saline (DPBS) and then lysed with 0.2 N NaOH for 10 minutes at room temperature with shaking. After addition of MicroScint 20 fluid, the cells were allowed to shake for 15 minutes at room temperature, and then the activity of [^14C]AMG was quantified on a β-scintillation counter. IC50 of each of the compounds was determined by GraphPad Prism 4.0 software.

Assay [2] has as its target T2, hSGLT2 (Homo sapiens, UniProt P31639).
T2 construct: FLAG; expressed in transfected cells
T2 sequence (P31639 1-672): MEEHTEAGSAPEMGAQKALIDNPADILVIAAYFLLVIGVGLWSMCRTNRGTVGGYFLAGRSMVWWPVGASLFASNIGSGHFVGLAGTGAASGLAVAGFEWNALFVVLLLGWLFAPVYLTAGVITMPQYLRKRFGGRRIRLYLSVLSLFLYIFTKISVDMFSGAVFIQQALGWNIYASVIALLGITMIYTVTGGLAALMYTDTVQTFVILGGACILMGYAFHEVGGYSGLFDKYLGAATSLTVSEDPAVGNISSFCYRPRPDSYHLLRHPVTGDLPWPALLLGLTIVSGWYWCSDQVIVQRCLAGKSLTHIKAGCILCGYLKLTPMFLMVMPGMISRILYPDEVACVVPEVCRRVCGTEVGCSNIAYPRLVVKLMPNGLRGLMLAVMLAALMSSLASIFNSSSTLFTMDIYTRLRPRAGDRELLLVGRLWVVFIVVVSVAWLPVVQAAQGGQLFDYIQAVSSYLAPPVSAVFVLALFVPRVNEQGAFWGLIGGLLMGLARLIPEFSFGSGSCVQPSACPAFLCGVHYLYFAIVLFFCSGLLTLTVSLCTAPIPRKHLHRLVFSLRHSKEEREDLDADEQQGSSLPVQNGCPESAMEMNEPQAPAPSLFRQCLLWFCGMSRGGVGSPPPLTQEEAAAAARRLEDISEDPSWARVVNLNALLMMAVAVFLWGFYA
Briefly: [14C]-AMG uptake assay in HEK293-hSGLT2 cells. The assay is classed as cell-based. The conditions noted are these: HEK293-hSGLT2 stable cell line. As to the method:
as §1, §2, §3

In assay [3] the test system is C57BL/6 male mice. Briefly: Urinary glucose excretion test (UGE test). The format is in vivo. The conditions noted are these: 3 mg/kg oral (Examples 13 to 38), 2 g/kg glucose after 30 minutes, urine collected for 24 hours. As to the method:
The pharmaceutical efficacies of the compounds prepared in the Examples were investigated by a urinary glucose excretion test using C57BL/6 male mice (8-week-old, prepared and supplied from Orient Chemical Co. Ltd.).
Two mice were used in each group. The mice were fasted for 16 hours, and the compound of each of the Examples [10 mg/kg of the compound of Examples 1 to 12; and 3 mg/kg of the compound of Examples 13 to 38] was dissolved in a vehicle [a mixed solution of 5% 1-methyl-2-pyrrolidinone, 20% PEG, and 75% 20 mM sodium diphosphate], and orally administered to the mice. After 30 minutes, 2 g/kg of glucose was orally administered to the mice in all the groups. Thereafter, the mice were immediately put into a metabolic cage, and urine was collected for 24 hours. The mice were freely fed an hour after the administration of glucose.
The results obtained from the test, that is, the results obtained by measuring urinary glucose excretion in the C57BL/6 male mice according to the compounds of the Examples, are listed in Table 5.

Usually IC50 stands for the point on the concentration scale where inhibition reaches its midpoint. As to `COc1ccc(Cc2cc([C@@H]3O[C@H](CO)[C@@H](O)[C@H](O)[C@H]3O)cc3c2CCC3)cc1` [Example 14, (2R,3S,4R,5R,6S)-2-(hydroxymethyl)-6-(7-(4-methoxybenzyl)-2,3-dihydro-1H-inden-5-yl)tetrahydro-2H-pyran-3,4,5-triol], the concentration for half-maximal inhibition (IC50) in assay [1] stood at 31.9 nM; in assay [2], 4 nM.
In the case of `Cc1ccc(Cc2cc([C@@H]3O[C@H](CO)[C@@H](O)[C@H](O)[C@H]3O)cc3c2CCC3)cc1` [Example 15, (2R,3S,4R,5R,6S)-2-(hydroxymethyl)-6-(7-(4-methylbenzyl)-2,3-dihydro-1H-inden-5-yl)tetrahydro-2H-pyran-3,4,5-triol], the IC50 in assay [1] was determined as 7.7 nM; in assay [2], 9.6 nM. In addition, the UGE in assay [3] is reported as 8.1 mg/20 g/24 hr.
For `CCc1ccc(Cc2cc([C@@H]3O[C@H](CO)[C@@H](O)[C@H](O)[C@H]3O)cc3c2CCC3)cc1` [Example 16, (2S,3R,4R,5S,6R)-2-(7-(4-ethylbenzyl)-2,3-dihydro-1H-inden-5-yl)-6-(hydroxymethyl)tetrahydro-2H-pyran-3,4,5-triol], in that order: 54.6 nM, 5.6 nM and 16.4 mg/20 g/24 hr.
Consider `OC[C@H]1O[C@@H](c2cc3c(c(Cc4ccc(OC(F)(F)F)cc4)c2)CCC3)[C@H](O)[C@@H](O)[C@@H]1O` [Example 22, (2R,3S,4R,5R,6S)-2-(hydroxymethyl)-6-(7-(4-(trifluoromethoxy)benzyl)-2,3-dihydro-1H-inden-5-yl)tetrahydro-2H-pyran-3,4,5-triol], for which the IC50 in assay [1] is 511 nM; in assay [2] it was 9.2 nM. For the same compound, in assay [3], the UGE was 9.6 mg/20 g/24 hr.
On to `OC[C@H]1O[C@@H](c2cc3c(c(Cc4ccc(C(F)(F)F)cc4)c2)CCC3)[C@H](O)[C@@H](O)[C@@H]1O` [Example 24, (2R,3S,4R,5R,6S)-2-(hydroxymethyl)-6-(7-(4-(trifluoromethyl)benzyl)-2,3-dihydro-1H-inden-5-yl)tetrahydro-2H-pyran-3,4,5-triol], for which the IC50 was 267 nM in assay [1] and 6.8 nM in assay [2].
The like results for `OC[C@H]1O[C@@H](c2cc3c(c(Cc4ccc5c(c4)OCO5)c2)CCC3)[C@H](O)[C@@H](O)[C@@H]1O` [Example 29, (2S,3R,4R,5S,6R)-2-(7-(benzo[d][1,3]dioxol-5-ylmethyl)-2,3-dihydro-1H-inden-5-yl)-6-(hydroxymethyl)tetrahydro-2H-pyran-3,4,5-triol] were, in that order, 35.2 nM and 3.5 nM.
For the compound `OC[C@H]1O[C@@H](c2cc3c(c(Cc4ccc5c(c4)OCCO5)c2)CCC3)[C@H](O)[C@@H](O)[C@@H]1O` [Example 30, (2S,3R,4R,5S,6R)-2-(7-((2,3-dihydrobenzo[1,4]dioxin-6-yl)methyl)-2,3-dihydro-1H-inden-5-yl)-6-(hydroxymethyl)tetrahydro-2H-pyran-3,4,5-triol], the IC50 in assay [1] was determined as 55.2 nM; in assay [2] it was 3.5 nM. This compound yielded a UGE in assay [3] of 7.2 mg/20 g/24 hr.
Consider `CC(C)(C)c1ccc(Cc2cc([C@@H]3O[C@H](CO)[C@@H](O)[C@H](O)[C@H]3O)cc3c2CCC3)cc1` [Example 31, (2S,3R,4R,5S,6R)-2-(7-(4-(tert-butyl)benzyl)-2,3-dihydro-1H-inden-5-yl)-6-(hydroxymethyl)tetrahydro-2H-pyran-3,4,5-triol], for which the IC50 in assay [1] is 178 nM; in assay [2] it was 5.8 nM.
For `Cc1ccc(Cc2cc([C@@H]3O[C@H](CO)[C@@H](O)[C@H](O)[C@H]3O)cc3c2CCC3)cc1C` [Example 32, (2S,3R,4R,5S,6R)-2-(7-(3,4-dimethylbenzyl)-2,3-dihydro-1H-inden-5-yl)-6-(hydroxymethyl)tetrahydro-2H-pyran-3,4,5-triol], in that order: 63.2 nM and 4.5 nM.
Regarding `OC[C@H]1O[C@@H](c2cc3c(c(Cc4ccc(OCC(F)(F)F)cc4)c2)CCC3)[C@H](O)[C@@H](O)[C@@H]1O` [Example 34, (2R,3S,4R,5R,6S)-2-(hydroxymethyl)-6-(7-(4-(2,2,2-trifluoroethoxy)benzyl)-2,3-dihydro-1H-inden-5-yl)tetrahydro-2H-pyran-3,4,5-triol], the IC50 in assay [1] turned out to be 553 nM; in assay [2], 13.5 nM.
Regarding `OC[C@H]1O[C@@H](c2cc3c(c(Cc4ccc(-c5ccc(F)cc5)s4)c2)CCC3)[C@H](O)[C@@H](O)[C@@H]1O` [Example 36, (2S,3R,4R,5S,6R)-2-(7-((5-(4-fluorophenyl)thiophen-2-yl)methyl)-2,3-dihydro-1H-inden-5-yl)-6-(hydroxymethyl)tetrahydro-2H-pyran-3,4,5-triol], the IC50 stood at 84.9 nM in assay [1] and 9 nM in assay [2].
As to `OC[C@H]1O[C@@H](c2cc3c(c(Cc4cc5ccccc5s4)c2)CCC3)[C@H](O)[C@@H](O)[C@@H]1O` [Example 37, (2S,3R,4R,5S,6R)-2-(7-(benzo[b]thiophen-2-ylmethyl)-2,3-dihydro-1H-inden-5-yl)-6-(hydroxymethyl)tetrahydro-2H-pyran-3,4,5-triol], the IC50 was 19.8 nM in assay [1] and 9 nM in assay [2]. The UGE in assay [3] is recorded as 14.5 mg/20 g/24 hr.
The like results for `OC[C@H]1O[C@@H](c2cc3c(c(Cc4ccc(C5CC5)cc4)c2)CCC3)[C@H](O)[C@@H](O)[C@@H]1O` [Example 38, (2S,3R,4R,5S,6R)-2-(7-(4-cyclopropylbenzyl)-2,3-dihydro-1H-inden-5-yl)-6-(hydroxymethyl)tetrahydro-2H-pyran-3,4,5-triol] were, in that order, 24.9 nM, 5.8 nM and 14.8 mg/20 g/24 hr.
In the case of `OC[C@H]1O[C@@H](c2cc3c(c(Cc4ccc(Cl)cc4)c2)CCC3)[C@H](O)[C@@H](O)[C@@H]1O` [Example 40, (2S,3R,4R,5S,6R)-2-(7-(4-chlorobenzyl)-2,3-dihydro-1H-inden-5-yl)-6-(hydroxymethyl)tetrahydro-2H-pyran-3,4,5-triol], the 50% inhibitory concentration (IC50) is 210 nM in assay [1] and 28.8 nM in assay [2].
